From US11952577B2, “Yarrowia lipolytica yeast strains expressing an HMG-CoA reductase having increased activity or expression” (NUCELIS LLC, priority 2009, dated 2024)

Legend:
[1] = system: Yarrowia lipolytica ATCC 90904; assay: Cultivation in supplemented CYM001 media, lipid and squalene production; type: cell-based; conditions: 30′C, 300 rpm, 120 h
Description: For example, Yarrowia lipolytica ATCC 90904 was cultivated in high Carbon/Nitrogen ratio media (C/N=420, Li. Y-H., Liu, B., Zhao, Z-B., and Bai. F-W. 2006 “Optimized Culture Medium and Fermentation Conditions for Lipid Production by Rhodosporidium toruloides” Chinese Journal of Biotechnology 22(4): 650-656) (hereinafter “CYM001 Media”) supplemented with 0 to 50 μg/ml terbinafine at 30′C, 300 rpm for 120 h.
In another example, Yarrowia lipolytica ATCC 90904 was cultivated in CYM001 media supplemented with 0 to 50 μg/ml Oleic acid at 30′C, 300 rpm for 120 h.
In a further example, Yarrowia lipolytica ATCC 90904 was cultivated in CYM001 media supplemented with 0 to 200 μM clethodim at 30′C, 300 rpm for 120 h.

[2] = system: Yarrowia lipolytica strain polg (Yeastern); assay: as above; type: cell-based; conditions: 30′C, 300 rpm, 120 h
From the text: Various Yarrowia lipolylica strains are used for lipid and squalene production including ATCC 20688, ATCC 90811, ATCC 90904, ATCC 90812, ATCC MYA-2613, and Yeastern polg. For example, Yarrowia lipolytica strain polg (Yeastern) was cultivated in high Carbon/Nitrogen ratio media (C/N=420, Li, Y-H., Liu. B., Zhao. Z-B., and Bai, F-W. 2006 “Optimized Culture Medium and Fermentation Conditions for Lipid Production by Rhodosporidium toruloides” Chinese Journal of Biotechnology 22(4): 650-656) (hereinafter “CYM001 Media”) supplemented with 0 to 50 μg/ml terbinafine at 30′C, 300 rpm for 120 h.

CCSC(C)CC1CC(=O)C(/C(CC)=N/OC/C=C/Cl)=C(O)C1 (centres unmarked) [clethodim]
increase in the yield (mg) of squalene per 60-ml flask ([1]; 200 μM): 60 fold

CN(C/C=C/C#CC(C)(C)C)Cc1cccc2ccccc12 [terbinafine]
total lipid as squalene ([1]; 12.5 μg/ml or higher): up to 18.5% | total lipid as squalene ([2]; 12.5 μg/ml or higher, CYM001 media): up to 38% | total lipid/Cell Dry weight ([2]; terbinafine-supplemented CYM001 media): up to 51%

CCCCCCCC/C=C\CCCCCCCC(=O)O [Oleic acid]
improvement of lipid accumulation in lipid/CDW over no supplementation ([1]; 10 μl/ml): 10 fold
